Test system: KRAS patient-derived spheroids with HUVEC/MSC, viability
Experiment: Anticancer human tumor 323965-272-R-J2-PDC patient-derived pancreatic carcinoma cell line growth inhibition [KRAS2]
Settings: for IC50: curve of first compound; for viability, T/C: stronger effect = lower value
Source text: Multicellular complex tumor spheroid response to RAS pathway inhibitors in combination with a targeted agents in patient-derived cell lines with oncogenic KRAS variants from multiple cancer types
A high-throughput screen of multi-cell type tumor spheroids was designed to identify active combinations of targeted small molecules and KRAS pathway inhibitors. Complex spheroids include a stromal component modeled by human endothelial cells (HUVEC) and fibroblasts modeled by human mesenchymal stem cells (MSCs). The concentration ranges selected for each drug and investigational agent were based upon clinically achievable concentrations if the clinical Cmax of the agent was known.
Compounds. The drugs and investigational agents: BI-3406 (NSC825286), BAY-293 (NSC824723), batoprotafib (TNO155; NSC825523), sotorasib (AMG 510; NSC818433), MRTX1257 (NSC819558), elimusertib (BAY 1895344; NSC800525), molibresib (GSK525762; NSC774829), temuterkib (LY3214996; NSC803410), venetoclax (NSC766270), alisertib (NSC759677), olaparib (NSC753686), talazoparib (NSC767125), erdafitinib (NSC781556), ipatasertib (NSC767898), cabozantinib (NSC761068), nintedanib (NSC756659), abemaciclib (NSC768073), docetaxel (NSC628503), trametinib (NSC758246), and sapanisertib (NSC764658) were obtained from the National Cancer Institute (NCI) Developmental Therapeutics Program Chemical Repository. The FDA-approved anticancer drug set is available from the Developmental Therapeutics Program. […] The stock solutions were prepared in dimethyl sulfoxide (DMSO, Sigma-Aldrich, St. Louis, MO, cat. D2650) at 800-fold the tested concentration and stored at -70 degrees C prior to their use. All drugs and investigational agents were tested over a range starting from a high concentration at or near the clinical Cmax and decreasing in half-log increments. If the clinical Cmax for an agent had not been determined, the highest concentration tested was 10 microM.
Cell Culture. All cells were maintained in an incubator at 37 degrees C and 5% CO2 with 95% humidity. The PDC lines were cultured according to standard operating procedures established by the NCI PDMR (https://pdmr.cancer.gov/sops/default.htm). Briefly, all PDCs were thawed and cultured in Matrigel-coated flasks prepared with a working solution of 1X Ham's F-12 nutrient mix, without supplementation (Invitrogen, Waltham, MA, cat. 11765054), 100 U/mL penicillin-streptomycin (Invitrogen, cat. 15140122), and 2.5% Matrigel (Corning Inc., Corning, NY, cat. 354248) for the first three passages. All PDCs were cultured in complete DMEM/F-12 media containing advanced DMEM/F-12 (Invitrogen, cat. 12634028), 4.9% defined fetal bovine serum, heat inactivated (HyClone Laboratories Inc., Logan, UT, cat. SH30070.03HI), 389 ng/mL hydrocortisone (Sigma-Aldrich, cat. H4001), 9.7 ng/mL human EGF recombinant protein (Invitrogen, cat. PHG0313), 23.4 microg/mL adenine (Sigma-Aldrich, cat. A2786), 97.3 U/mL penicillin-streptomycin (Invitrogen, cat. 15140122), 1.9 mM L-glutamine (Invitrogen, cat. 25030081), and 9.7 microM Y-27632 dihydrochloride (Tocris Bioscience, Bristol, United Kingdom, cat. 1254). The PDCs were cultured in complete DMEM/F12 media without 9.7 microM Y-27632 dihydrochloride for at least two passages prior to the screen. The established cell line HOP-62 was cultured in RPMI 1640 medium, HEPES (Invitrogen, cat. 22400105) with 10% defined fetal bovine serum (HyClone Laboratories Inc., cat. SH30070.03) and 2 mM L-glutamine (Invitrogen, cat. 25030081). The pooled donor HUVEC were cultured in endothelial cell growth medium 2 (PromoCell, Heidelberg, Germany, cat. C-22011) and the hMSC were cultured in mesenchymal stem cell growth medium 2 (PromoCell, cat. C-28009). For all experiments, HUVEC and hMSC were used at passages </=5, while the malignant cell lines were used at passages </=15. […]

[1] = second compound 0.1 µM, first compound 0.0316 µM
[2] = second compound 0.316 µM, first compound 0.0316 µM
[3] = second compound 1 µM, first compound 0.0316 µM
[4] = second compound 3.16 µM, first compound 0.0316 µM
[5] = second compound 10 µM, first compound 0.0316 µM
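Note: spheroids exposed to agents for 7 days.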
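Throughout, for viability, T/C: 100% = DMSO vehicle control viability.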

Q: How did the IC50 (second compound 0.1 µM) turn out when `CC(=O)Nc1cccc(-n2c(=O)n(C3CC3)c(=O)c3c(Nc4ccc(I)cc4F)n(C)c(=O)c(C)c32)c1` + C=CC(=O)N1CCN(c2nc(=O)n(-c3c(C)ccnc3C(C)C)c3nc(-c4c(O)cccc4F)c(F)cc23)C(C)C1 was run?
A: 1.15 nM

Q: And the IC50 (second compound 0.316 µM)?
A: 0.987 nM

Q: And the IC50 (second compound 1 µM)?
A: 0.79 nM

Q: What about the IC50 (second compound 3.16 µM) of the same compound?
A: 1.19 nM

Q: And the IC50 (second compound 10 µM)?
A: 0.295 nM

Q: And the viability, T/C (second compound 0.1 µM, first compound 0.0001 µM)?
A: 67.4%

Q: And the viability, T/C (second compound 0.1 µM, first compound 0.000316 µM)?
A: 62.2%

Q: What about the viability, T/C (second compound 0.1 µM, first compound 0.001 µM) of the same compound?
A: 49.2%

Q: What about the viability, T/C (second compound 0.1 µM, first compound 0.00316 µM) of the same compound?
A: 40.1%

Q: What about the viability, T/C (second compound 0.1 µM, first compound 0.01 µM) of the same compound?
A: 36.6%

Q: And the viability, T/C [1]?
A: 23.4%

Q: And the viability, T/C (second compound 0.316 µM, first compound 0.0001 µM)?
A: 60.1%

Q: What about the viability, T/C (second compound 0.316 µM, first compound 0.000316 µM) of the same compound?
A: 57.1%

Q: What about the viability, T/C (second compound 0.316 µM, first compound 0.001 µM) of the same compound?
A: 49.3%

Q: And the viability, T/C (second compound 0.316 µM, first compound 0.00316 µM)?
A: 41.5%

Q: What about the viability, T/C (second compound 0.316 µM, first compound 0.01 µM) of the same compound?
A: 33.7%

Q: What about the viability, T/C [2] of the same compound?
A: 20.9%

Q: What about the viability, T/C (second compound 1 µM, first compound 0.0001 µM) of the same compound?
A: 61.4%

Q: What about the viability, T/C (second compound 1 µM, first compound 0.000316 µM) of the same compound?
A: 58.3%

Q: What about the viability, T/C (second compound 1 µM, first compound 0.001 µM) of the same compound?
A: 46.4%

Q: And the viability, T/C (second compound 1 µM, first compound 0.00316 µM)?
A: 40.4%

Q: And the viability, T/C (second compound 1 µM, first compound 0.01 µM)?
A: 32.7%

Q: And the viability, T/C [3]?
A: 27%

Q: And the viability, T/C (second compound 3.16 µM, first compound 0.0001 µM)?
A: 64.1%

Q: What about the viability, T/C (second compound 3.16 µM, first compound 0.000316 µM) of the same compound?
A: 59.5%

Q: What about the viability, T/C (second compound 3.16 µM, first compound 0.001 µM) of the same compound?
A: 51.4%

Q: And the viability, T/C (second compound 3.16 µM, first compound 0.00316 µM)?
A: 42.1%

Q: And the viability, T/C (second compound 3.16 µM, first compound 0.01 µM)?
A: 36.7%

Q: What about the viability, T/C [4] of the same compound?
A: 28.2%

Q: And the viability, T/C (second compound 10 µM, first compound 0.0001 µM)?
A: 60.9%

Q: And the viability, T/C (second compound 10 µM, first compound 0.000316 µM)?
A: 54.3%

Q: What about the viability, T/C (second compound 10 µM, first compound 0.001 µM) of the same compound?
A: 32.6%

Q: And the viability, T/C (second compound 10 µM, first compound 0.00316 µM)?
A: 35.8%

Q: And the viability, T/C (second compound 10 µM, first compound 0.01 µM)?
A: 28.1%

Q: And the viability, T/C [5]?
A: 23.8%

Q: For `COc1cc(Nc2ncc3c(n2)-c2ccc(Cl)cc2C(c2c(F)cccc2OC)=NC3)ccc1C(=O)O` + C=CC(=O)N1CCN(c2nc(=O)n(-c3c(C)ccnc3C(C)C)c3nc(-c4c(O)cccc4F)c(F)cc23)C(C)C1, which IC50 (second compound 0.1 µM) is on record?
A: < 31.6 nM

Q: And the IC50 (second compound 0.316 µM)?
A: < 31.6 nM

Q: What about the IC50 (second compound 1 µM) of the same compound?
A: < 31.6 nM

Q: And the IC50 (second compound 3.16 µM)?
A: < 31.6 nM

Q: And the IC50 (second compound 10 µM)?
A: < 31.6 nM

Q: What about the viability, T/C [1] of the same compound?
A: 53.5%

Q: And the viability, T/C (second compound 0.1 µM, first compound 0.1 µM)?
A: 36.2%

Q: And the viability, T/C (second compound 0.1 µM, first compound 0.316 µM)?
A: 26.4%

Q: And the viability, T/C (second compound 0.1 µM, first compound 1 µM)?
A: 31.7%

Q: And the viability, T/C (second compound 0.1 µM, first compound 3.16 µM)?
A: 43.3%

Q: And the viability, T/C (second compound 0.1 µM, first compound 10 µM)?
A: 46.3%

Q: And the viability, T/C [2]?
A: 54.1%

Q: And the viability, T/C (second compound 0.316 µM, first compound 0.1 µM)?
A: 35.3%

Q: What about the viability, T/C (second compound 0.316 µM, first compound 0.316 µM) of the same compound?
A: 28.8%

Q: And the viability, T/C (second compound 0.316 µM, first compound 1 µM)?
A: 30.1%

Q: And the viability, T/C (second compound 0.316 µM, first compound 3.16 µM)?
A: 39.8%

Q: And the viability, T/C (second compound 0.316 µM, first compound 10 µM)?
A: 51.6%

Q: What about the viability, T/C [3] of the same compound?
A: 53%

Q: And the viability, T/C (second compound 1 µM, first compound 0.1 µM)?
A: 34%

Q: What about the viability, T/C (second compound 1 µM, first compound 0.316 µM) of the same compound?
A: 24.2%

Q: And the viability, T/C (second compound 1 µM, first compound 1 µM)?
A: 33.2%

Q: What about the viability, T/C (second compound 1 µM, first compound 3.16 µM) of the same compound?
A: 47.7%

Q: What about the viability, T/C (second compound 1 µM, first compound 10 µM) of the same compound?
A: 51.5%

Q: What about the viability, T/C [4] of the same compound?
A: 46.5%

Q: What about the viability, T/C (second compound 3.16 µM, first compound 0.1 µM) of the same compound?
A: 27.5%

Q: And the viability, T/C (second compound 3.16 µM, first compound 0.316 µM)?
A: 22.2%

Q: What about the viability, T/C (second compound 3.16 µM, first compound 1 µM) of the same compound?
A: 34.1%

Q: What about the viability, T/C (second compound 3.16 µM, first compound 3.16 µM) of the same compound?
A: 34.7%

Q: And the viability, T/C (second compound 3.16 µM, first compound 10 µM)?
A: 38.4%

Q: What about the viability, T/C [5] of the same compound?
A: 27.3%

Q: What about the viability, T/C (second compound 10 µM, first compound 0.1 µM) of the same compound?
A: 18.9%

Q: What about the viability, T/C (second compound 10 µM, first compound 0.316 µM) of the same compound?
A: 20.2%

Q: What about the viability, T/C (second compound 10 µM, first compound 1 µM) of the same compound?
A: 23%

Q: And the viability, T/C (second compound 10 µM, first compound 3.16 µM)?
A: 23.7%

Q: And the viability, T/C (second compound 10 µM, first compound 10 µM)?
A: 27.1%
